Assays:
PC-3 = assay: Growth inhibition of human PC3 cells assessed as cell growth at 0.01 uM incubated for 48 hrs by sulforhodamine B assay relative to control; assay type: functional; conditions: PC-3, 48 h, read-out: Activity
NCI-H522 [1] = assay: Growth inhibition of human NCI-H522 cells assessed as cell growth at 0.01 uM incubated for 48 hrs by sulforhodamine B assay relative to control; assay type: functional; conditions: NCI-H522, 48 h, read-out: Activity
NCI-H322M [2] = assay: Growth inhibition of human NCI-H322M cells assessed as cell growth at 0.1 uM incubated for 48 hrs by sulforhodamine B assay relative to control; assay type: functional; conditions: read-out: Activity
DU-145 [3] = assay: Growth inhibition of human DU145 cells assessed as cell growth at 1 uM incubated for 48 hrs by sulforhodamine B assay relative to control; assay type: functional; conditions: DU-145, 48 h, read-out: Activity
UACC-257 = assay: Growth inhibition of human UACC257 cells assessed as cell growth at 0.01 uM incubated for 48 hrs by sulforhodamine B assay relative to control; assay type: functional; conditions: UACC-257, 48 h, read-out: Activity
DU-145 [4] = assay: Growth inhibition of human DU145 cells assessed as cell growth at 0.01 uM incubated for 48 hrs by sulforhodamine B assay relative to control; assay type: functional; conditions: DU-145, 48 h, read-out: Activity
SW-620 [5] = assay: Growth inhibition of human SW620 cells assessed as cell growth at 1 uM incubated for 48 hrs by sulforhodamine B assay relative to control; assay type: functional; conditions: SW-620, 48 h, read-out: Activity
MDA-MB-231 = assay: Growth inhibition of human MDA-MB-231 cells assessed as cell growth at 0.01 uM incubated for 48 hrs by sulforhodamine B assay relative to control; assay type: functional; conditions: MDA-MB-231, 48 h, read-out: Activity
LOX IMVI [6] = assay: Growth inhibition of human LOXIMVI cells assessed as cell growth at 0.1 uM incubated for 48 hrs by sulforhodamine B assay relative to control; assay type: functional; conditions: read-out: Activity
NCI-H322M [7] = assay: Growth inhibition of human NCI-H322M cells assessed as cell growth at 0.01 uM incubated for 48 hrs by sulforhodamine B assay relative to control; assay type: functional; conditions: read-out: Activity
COLO 205 = assay: Growth inhibition of human COLO205 cells assessed as cell growth at 1 uM incubated for 48 hrs by sulforhodamine B assay relative to control; assay type: functional; conditions: COLO 205, 48 h, read-out: Activity
SF-295 [8] = assay: Growth inhibition of human SF295 cells assessed as cell growth at 100 uM incubated for 48 hrs by sulforhodamine B assay relative to control; assay type: functional; conditions: SF-295, 48 h, read-out: Activity
OVCAR-4 = assay: Growth inhibition of human OVCAR4 cells assessed as cell growth at 100 uM incubated for 48 hrs by sulforhodamine B assay relative to control; assay type: functional; conditions: OVCAR-4, 48 h, read-out: Activity
SNB-75 [9] = assay: Growth inhibition of human SNB75 cells assessed as cell growth at 1 uM incubated for 48 hrs by sulforhodamine B assay relative to control; assay type: functional; conditions: SNB-75, 48 h, read-out: Activity
SN12C = assay: Growth inhibition of human SN12C cells assessed as cell growth at 100 uM incubated for 48 hrs by sulforhodamine B assay relative to control; assay type: functional; conditions: read-out: Activity
SNB-75 [10] = assay: Growth inhibition of human SNB75 cells assessed as cell growth at 100 uM incubated for 48 hrs by sulforhodamine B assay relative to control; assay type: functional; conditions: SNB-75, 48 h, read-out: Activity
786-0 [11] = assay: Growth inhibition of human 786-0 cells assessed as cell growth at 0.01 uM incubated for 48 hrs by sulforhodamine B assay relative to control; assay type: functional; conditions: 786-0, 48 h, read-out: Activity
A498 = assay: Growth inhibition of human A498 cells assessed as cell growth at 0.1 uM incubated for 48 hrs by sulforhodamine B assay relative to control; assay type: functional; conditions: A498, 48 h, read-out: Activity
786-0 [12] = assay: Growth inhibition of human 786-0 cells assessed as cell growth at 0.1 uM incubated for 48 hrs by sulforhodamine B assay relative to control; assay type: functional; conditions: 786-0, 48 h, read-out: Activity
UACC-62 = assay: Growth inhibition of human UACC62 cells assessed as cell growth at 0.01 uM incubated for 48 hrs by sulforhodamine B assay relative to control; assay type: functional; conditions: UACC-62, 48 h, read-out: Activity
BT-549 = assay: Growth inhibition of human BT549 cells incubated for 48 hrs by sulforhodamine B assay; assay type: functional, cell-based; conditions: BT-549, 48 h
OVCAR-5 = assay: Growth inhibition of human OVCAR5 cells assessed as cell growth at 1 uM incubated for 48 hrs by sulforhodamine B assay relative to control; assay type: functional; conditions: OVCAR-5, 48 h, read-out: Activity
SNB-19 = assay: Growth inhibition of human SNB19 cells assessed as cell growth at 1 uM incubated for 48 hrs by sulforhodamine B assay relative to control; assay type: functional; conditions: SNB-19, 48 h, read-out: Activity
SF-295 [13] = assay: Growth inhibition of human SF295 cells assessed as cell growth at 1 uM incubated for 48 hrs by sulforhodamine B assay relative to control; assay type: functional; conditions: SF-295, 48 h, read-out: Activity
NCI-H460 = assay: Growth inhibition of human NCI-H460 cells assessed as cell growth at 0.1 uM incubated for 48 hrs by sulforhodamine B assay relative to control; assay type: functional; conditions: NCI-H460, 48 h, read-out: Activity
SW-620 [14] = assay: Growth inhibition of human SW620 cells assessed as cell growth at 0.01 uM incubated for 48 hrs by sulforhodamine B assay relative to control; assay type: functional; conditions: SW-620, 48 h, read-out: Activity
LOX IMVI [15] = assay: Growth inhibition of human LOXIMVI cells assessed as cell growth at 0.01 uM incubated for 48 hrs by sulforhodamine B assay relative to control; assay type: functional; conditions: read-out: Activity
M14 = assay: Growth inhibition of human M14 cells assessed as cell growth at 100 uM incubated for 48 hrs by sulforhodamine B assay relative to control; assay type: functional; conditions: M14, 48 h, read-out: Activity
SK-OV-3 = assay: Growth inhibition of human SKOV3 cells incubated for 48 hrs by sulforhodamine B assay; assay type: functional, cell-based; conditions: SK-OV-3, 48 h
MDA-MB-468 = assay: Growth inhibition of human MDA-MB-468 cells assessed as cell growth at 0.01 uM incubated for 48 hrs by sulforhodamine B assay relative to control; assay type: functional; conditions: MDA-MB-468, 48 h, read-out: Activity
CAKI-1 = assay: Growth inhibition of human Caki1 cells assessed as cell growth at 1 uM incubated for 48 hrs by sulforhodamine B assay relative to control; assay type: functional; conditions: CAKI-1, 48 h, read-out: Activity
NCI-H522 [16] = assay: Growth inhibition of human NCI-H522 cells assessed as cell growth at 100 uM incubated for 48 hrs by sulforhodamine B assay relative to control; assay type: functional; conditions: NCI-H522, 48 h, read-out: Activity
SK-MEL-5 = assay: Growth inhibition of human SK-MEL-5 cells assessed as cell growth at 0.01 uM incubated for 48 hrs by sulforhodamine B assay relative to control; assay type: functional; conditions: SK-MEL-5, 48 h, read-out: Activity
[17] = read-out: LC50 (the source's name)
[18] = read-out: pLC50 (the source's name) (converted)

## COc1cc(Cl)cc(-c2nn(-c3cccc(NC(=O)c4cccc(C(F)(F)F)c4)c3)cc2-c2ccncc2)c1
PC-3
  growth at 0.01 µM: 94%
NCI-H522 [1]
  growth at 0.01 µM: 51%
NCI-H322M [2]
  growth at 0.1 µM: 95%
DU-145 [3]
  growth at 1 µM: 100%
UACC-257
  growth at 0.01 µM: 91%
DU-145 [4]
  growth at 0.01 µM: 109%
SW-620 [5]
  growth at 1 µM: 107%
MDA-MB-231
  growth at 0.01 µM: 102%
LOX IMVI [6]
  growth at 0.1 µM: 95%
NCI-H322M [7]
  growth at 0.01 µM: 69%
COLO 205
  growth at 1 µM: 94%
SF-295 [8]
  growth at 100 µM: 35%
OVCAR-4
  growth at 100 µM: 74%
SNB-75 [9]
  growth at 1 µM: 70%
SN12C
  growth at 100 µM: 52%
SNB-75 [10]
  growth at 100 µM: 49%
786-0 [11]
  growth at 0.01 µM: 99%
A498
  growth at 0.1 µM: 52%
786-0 [12]
  growth at 0.1 µM: 97%
UACC-62
  growth at 0.01 µM: 98%
BT-549; read-out: GI50
  GI50: > 100 µM
BT-549; [17]
  CC50: > 100 µM
BT-549; read-out: TGI
  TGI: > 100 µM
BT-549; read-out: pGI50 (converted)
  GI50: > 100 µM
BT-549; [18]
  CC50: > 100 µM
BT-549; read-out: pTGI (converted)
  TGI: > 100 µM
OVCAR-5
  growth at 1 µM: 96%
SNB-19
  growth at 1 µM: 100%
SF-295 [13]
  growth at 1 µM: 57%
NCI-H460
  growth at 0.1 µM: 99%
SW-620 [14]
  growth at 0.01 µM: 101%
LOX IMVI [15]
  growth at 0.01 µM: 100%
M14
  growth at 100 µM: 27%
SK-OV-3; read-out: GI50
  GI50: > 100 µM
SK-OV-3; [17]
  CC50: > 100 µM
SK-OV-3; read-out: TGI
  TGI: > 100 µM
SK-OV-3; read-out: pGI50 (converted)
  GI50: > 100 µM
SK-OV-3; [18]
  CC50: > 100 µM
SK-OV-3; read-out: pTGI (converted)
  TGI: > 100 µM
MDA-MB-468
  growth at 0.01 µM: 91%
CAKI-1
  growth at 1 µM: 90%
NCI-H522 [16]
  growth at 100 µM: 18%
SK-MEL-5
  growth at 0.01 µM: 97%

## COc1cc(Cl)cc(-c2nn(-c3cccc(NC(=O)Nc4cccc(C(F)(F)F)c4)c3)cc2-c2ccncc2)c1
PC-3
  growth at 0.01 µM: 91%
NCI-H522 [1]
  growth at 0.01 µM: 95%
NCI-H322M [2]
  growth at 0.1 µM: 94%
DU-145 [3]
  growth at 1 µM: 73%
UACC-257
  growth at 0.01 µM: 90%
DU-145 [4]
  growth at 0.01 µM: 101%
SW-620 [5]
  growth at 1 µM: 74%
MDA-MB-231
  growth at 0.01 µM: 102%
LOX IMVI [6]
  growth at 0.1 µM: 97%
NCI-H322M [7]
  growth at 0.01 µM: 99%
COLO 205
  growth at 1 µM: 79%
SF-295 [8]
  growth at 100 µM: -53%
OVCAR-4
  growth at 100 µM: -13%
SNB-75 [9]
  growth at 1 µM: 68%
SN12C
  growth at 100 µM: -20%
SNB-75 [10]
  growth at 100 µM: -17%
786-0 [11]
  growth at 0.01 µM: 99%
A498
  growth at 0.1 µM: 92%
786-0 [12]
  growth at 0.1 µM: 99%
UACC-62
  growth at 0.01 µM: 96%
BT-549; read-out: GI50
  GI50: 2.22 µM
BT-549; [17]
  CC50: > 100 µM
BT-549; read-out: TGI
  TGI: 55 µM
BT-549; read-out: pGI50 (converted)
  GI50: 2.24 µM
BT-549; [18]
  CC50: > 100 µM
BT-549; read-out: pTGI (converted)
  TGI: 5.62 µM
OVCAR-5
  growth at 1 µM: 88%
SNB-19
  growth at 1 µM: 77%
SF-295 [13]
  growth at 1 µM: 45%
NCI-H460
  growth at 0.1 µM: 102%
SW-620 [14]
  growth at 0.01 µM: 103%
LOX IMVI [15]
  growth at 0.01 µM: 96%
M14
  growth at 100 µM: -78%
SK-OV-3; read-out: GI50
  GI50: 3.61 µM
SK-OV-3; [17]
  CC50: > 100 µM
SK-OV-3; read-out: TGI
  TGI: 55.4 µM
SK-OV-3; read-out: pGI50 (converted)
  GI50: 3.63 µM
SK-OV-3; [18]
  CC50: > 100 µM
SK-OV-3; read-out: pTGI (converted)
  TGI: 58.9 µM
MDA-MB-468
  growth at 0.01 µM: 94%
CAKI-1
  growth at 1 µM: 57%
NCI-H522 [16]
  growth at 100 µM: -78%
SK-MEL-5
  growth at 0.01 µM: 96%

Reference: ChEMBL document CHEMBL4308841, “Synthesis, in vitro antiproliferative activity, and kinase inhibitory effects of pyrazole-containing diarylureas and diarylamides” (Eur J Med Chem, 2018)
